These results are taken from US12059499B2, “Liposome loading” (PLUMB PHARMACEUTICALS, INC., priority 2015, dated 2024).

Where two headings read alike, the source gives them in different places.

For data set [1] the following is noted: partly stated as estimated; cited from earlier work.
The conditions of data set [2]: cited from earlier work.
A short description of data set [3]: Liposome leakage, sedimentation method. Type of data set: physicochemical. Here is the method: Liposome Leakage, Sedimentation Method. Liposome samples were diluted to 3-5 mL and left on an orbital shaker at 22° C. At specific time points, the liposomes were sedimented in a centrifuge at 300×g for 5 minutes and an aliquot of the clear supernatant was analyzed spectrophotometrically for drug and loading base content. After measurement, the solution was returned to the liposome suspension, which was vortexed and returned to the orbital shaker.
Then, 400 microliters of a pyridinium salt solution (prewarmed to 58° C.) were added to the lipid suspension. The mixture was kept at 58° C. for 5 minutes and then 100 microliters of the pyridinium salt solution were added. […] A total of three washes were performed. […] The samples were subsequently monitored for release of naltrexone using the sedimentation method. Two trials were performed for each condition.

The conditions of data set [4]: cited from earlier work. This is another data set of the same source.
Data set [5] in a line: Leakage of drug from loaded liposomes, Examples 5 to 8 (method not named). The note with it: for leakage of chloroquine from liposomes loaded using this base, compared among three loading bases: adenine triflate, aniline triflate, pyridinium sulfate.
Data set [6] can be described thus: Liposome leakage, dialysis method. As to conditions: for pyridine leakage from the liposomes: slower after 3 days.
Experimental: A 0.5-mL aliquot of liposome suspension was placed in a section of dialysis tubing tied at one end. The tubing was tied at the other end to form a sealed bag. The bag was placed in 4.5 mL of isotonic NaCl saline solution and placed on an orbital shaker. At specific time points, the dialysis bags were exchanged into fresh isotonic NaCl and the drug and loading base were quantified spectophotometrically in the external dialysis solutions.
The conditions of data set [7]: administered orally; cited from earlier work.
For data set [8] the following is noted: cited from earlier work. This is another data set of the same source.
Setting [9] is: 1.5 M pyridinium sulfate liposomes.
Where [10] appears, read: liposomes loaded with this pyridinium salt.

For orientation: log P means the decadic logarithm of the partition coefficient of the neutral form, usually between octanol and water. As to `COc1ccccn1` [2-methoxypyridine], the “log P” value in data set [1] is on record as “approximately 1.3”. The “solubility in water” value in data set [2] is recorded as “limited solubility in water”.
Regarding `C1=Cc2cccc(OC[C@H]3CNCCO3)c2C1.O=S(=O)(O)c1ccccc1` [Benzenesulfonate], in data set [3], the “naltrexone release rate compared with sulfate and eprodisate salts” value is “higher release rates”.
With `Cl.c1ccncc1` [Chloride, pyridinium chloride], in data set [3], the “release of naltrexone in about 300 hours” value amounted to 20%.
On to `CCC(C)O` (stereo not drawn) [Example 2-butanol, 2-butanol], for which the “log P” value in data set [1] was 0.683.
Regarding `O=[N+]([O-])O` [Nitrate], in data set [3], the “release of naltrexone in 500 hours” value is “over 70%” and the “release of naltrexone in 860 hours” value turned out to be 90%.
Broadly, the pKa is the pH at which an ionisable group is half protonated. With `Nc1ncnc2nc[nH]c12` [adenine, 6-aminopurine], the pKa in data set [4] is 4.15. Besides, in data set [2], the “solubility in water” value was “very limited solubility in water”. Besides, in data set [5], the “leakage of chloroquine from liposomes loaded using this base, compared among three loading bases” value is “least rapid”.
Regarding `N` [ammonia, reference compound], the “log P” value in data set [1] is “approximately −0.3”.
For the compound `Nc1ccccc1` [aniline], in data set [5], the “leakage of chloroquine from liposomes loaded using this base, compared among three loading bases” value was “most rapid”.
As for `CCN(CC)CCCC(C)Nc1ccnc2cc(Cl)ccc12` (stereo not drawn) [chloroquine, reference compound], in data set [6] (0.133 M ammonium sulfate gradient liposomes (comparison)), the “leakage of loaded drug in the first 24 hours” value came out at 18%. Besides, the “leakage after 400 hours” value in data set [5] (DPPC:cholesterol liposomes loaded with a sulfate salt of pyridine) is 4-8%; in data set [5] (loaded with the eprodisate salts of both pyridine and 2-methoxypyridine) it was no more than 1%.
Consider `O=C1CC[C@@]2(O)[C@H]3Cc4ccc(O)c5c4[C@@]2(CCN3CC2CC2)[C@H]1O5` [naltrexone, reference compound], for which, in data set [3] (setting [9]), the “initial release at 24 hours” value is listed as “approximately 4%” and the “liposome contents released in 672 hours” value was 20%. The release rate entry in data set [3] (1.5 M pyridinium sulfate liposomes, over 672 hours) is recorded as “less than 1 % per day”. Besides, in data set [4], the pKa is 7.3. Also, the log partition coefficient (log P) in data set [1] is reported as 1.3.
As for `NC(=O)c1cccnc1` [nicotinamide], the pKa in data set [4] was 3.25. The “oral dose with no toxic effects (as high as)” value in data set [7] is given as no more than 3 gm/day. Also, the “concentration of solutions of the salt with most strong acids (as concentrated as)” value in data set [2] (pH 2-3 and room temperature) is given as no more than 4 M.
In the case of `CN1CC[C@]23c4c5ccc(O)c4O[C@H]2C(=O)CC[C@@]3(O)[C@H]1C5` [oxymorphone], the release time result is “approximately 24 hours” in data set [8] (animal studies, egg phosphatidylcholine and cholesterol vesicles); “approximately 72 hours” in data set [8] (dipalmitoylphosphatidylcholine and cholesterol vesicles).
On to `c1ccnnc1` [pyridazine], for which the lipophilicity (log P) in data set [1] was “approximately −0.7”. Also, the “solubility in water” value in data set [2] is given as “miscible with water at all ratios”.
For `c1ccncc1` [pyridine], the “pyridine leakage from the liposomes” value in data set [6] (0.5 M pyridinium sulfate liposomes loaded with 2.5 or 5 μmol chloroquine) and in data set [6] (1 M pyridinium chloride liposomes loaded with 2.5 or 5 μmol chloroquine) was “initially very rapid” each time. Besides, the “pyridine loss from liposomes” value in data set [6] (0.5 M pyridinium sulfate liposomes loaded with 10 or 20 μmol chloroquine) and in data set [6] (1 M pyridinium chloride liposomes loaded with 10 or 20 μmol chloroquine) was “minimal” throughout.
For the compound `O=S(=O)(O)CCCS(=O)(=O)O.c1ccncc1.c1ccncc1` [pyridinium eprodisate], in data set [3] (setting [10]), the “release of naltrexone in 900 hours” value is roughly 5%.
Turning to Methanesulfonate, the “naltrexone release rate compared with sulfate and eprodisate salts” value in data set [3] (setting [10]) is recorded as “higher release rates”.
